Experimental data taken from PMC9000415, “Discovery of Novel Epoxyketone Peptides as Lipase Inhibitors” (Molecules, 2022).

Legend:
HepG2 hepatoma cell line = assay: Cytotoxicity, MTT assay, HepG2; format: cell-based; conditions: Homo sapiens, 72 h exposure, read-out: HepG2 Cells IC50
Procedure: (§1) All the cell line that were used in this study are (CCD-1064SK) the human normal skin fibroblast and HepG2 hepatoma cell line. The CCD-1064SK and HepG2 cell line was purchased from American Type Culture Collection (ATCC, Manassas, VA, USA). Cells were cultured in Iscove’s medium as recommended from ATCC. Media was supplement with 10% heated fetal bovine serum, 1% of 2 Mm L-glutamine, and (100 IU/mL) penicillin/(100 ug/mL) streptomycin. According to the cells growth profile, cells were seeded with a density of 10 × 10^4 cell/well. Cell viability was determined by trypan blue exclusion using a hemocytometer. For the cytotoxicity assay, cells were washed with phosphate buffer saline (PBS). PBS was decanted and cells detached with 0.025% trypsin-EDTA (EuroClone). Media was added to a volume of 10 mL. The cell suspension was centrifuged at 1000 rpm for 10 min and the pellet was resuspended in 10 mL medium to make a single cell suspension. Viability of the cells was determined by trypan blue exclusion, and it exceeded 90% as counted in a hemocytometer. The cell suspension was diluted afterwards to give the optimal seeding density and 100 uL of the cell suspension was plated in a 96 well plate. Cells were cultured at 37 °C in a humidified atmosphere of 5% CO2. After 24 h the cells were treated with different concentrations of tested compounds, (each compound was initially dissolved in DMSO). Initially, 100 and 50 ug/mL of each extract were tested. The active compounds were those which gave less than 50% survival at exposure time 72 h. The final dilution for all prepared concentrations used for treating the cells contained not more than 0.01% of the initial solvent (DMSO), this concentration being used in the solvent control wells. At the end of the exposure time, cell growth was analyzed using the MTT assay. MTT assay: After 72 h of incubation, 15 µL of MTT stock solution (Promega) (5 mg/mL in sterile phosphate-buffered saline, pH 7.4) was added to each well. After the cells were incubated for 3 h in the presence of MTT, 100 µL of solubilizing stop solution was added to each well to solubilize the dark violet formazan crystals. The optical densities at 570 nm were then measured using a microplate reader. The results were expressed as a percentage of cell viability with respect to a control corresponding to untreated cells.

[1] = biological target: T1, porcine PL (pancreatic lipase) (Sus scrofa, UniProt P00591); assay: GC-FID based anti-lipase assay (phenyl acetate hydrolysis); format: biochemical; conditions: for IC50: porcine pancreatic lipase, phenyl acetate substrate, GC-FID, read-out: IC50 (nM) against PL
T1 construct: Lipase from porcine pancreas, Type II; purchased Sigma Aldrich L3126; host or cells: porcine pancreas (tissue-derived)
T1 sequence (P00591 1-450): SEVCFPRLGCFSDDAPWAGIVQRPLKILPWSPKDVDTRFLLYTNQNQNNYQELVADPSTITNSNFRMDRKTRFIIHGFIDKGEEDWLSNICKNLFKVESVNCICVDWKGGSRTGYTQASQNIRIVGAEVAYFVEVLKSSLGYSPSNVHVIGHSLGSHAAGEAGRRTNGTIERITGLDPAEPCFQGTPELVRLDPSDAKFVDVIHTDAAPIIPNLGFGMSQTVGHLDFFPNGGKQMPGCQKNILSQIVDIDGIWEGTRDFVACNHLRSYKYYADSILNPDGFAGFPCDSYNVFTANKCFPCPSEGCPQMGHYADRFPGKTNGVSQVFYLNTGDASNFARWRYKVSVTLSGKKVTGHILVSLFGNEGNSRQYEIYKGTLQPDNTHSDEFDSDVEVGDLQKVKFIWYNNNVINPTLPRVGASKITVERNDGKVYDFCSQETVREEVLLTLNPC
Procedure: All chemicals and solvents were purchased from commercial suppliers (Amman, Jordan) and used without further purification. Anhydrous solvents were distilled from sodium and benzophenone before use. NMR (The University of Jordan, Amman, Jordan) spectra were recorded on a Varian 500 MHz spectrometer (500 and 125 MHz for the ^1H and ^13C nuclei, respectively) using CDCl3 as solvents and spectra were referenced to residual solvent as internal standard (for CDCl3 δH 7.26 and δC 77.1). LC-HRMS data for analysis of compounds 3−13 were obtained on an Agilent 6239 HR-ESI-TOFMS (UCSD, San Diego, CA, USA) equipped with a Phenomenex Luna 5 µm C18 100 Å column (4.6 × 250 mm). LCMS data for purity analysis of the synthesized compounds 3−13 were obtained with a Thermo Finnigan Surveyor Autosampler-Plus/LC-PumpPlus/PDA-Plus system and a Thermo Finnigan LCQ Advantage Max mass spectrometer (monitoring m/z 150−2000 in positive ion mode) using a linear gradient of 30–100% H2O/acetonitrile over 30 min; flow rate of 0.9 mL/min (UCSD, San Diego, CA, USA). Semipreparative HPLC (UCSD, San Diego, CA, USA) purification was carried out using a Waters 515 with a Waters 996 photodiode array detector using Empower Pro software. […] Chemical shifts (δ) are given in parts per million (ppm) and coupling constants (J) are reported in Hertz (Hz). The compounds are named in accordance with IUPAC rules as applied by ChemBioDraw Ultra (version 20.1.1) (software provided by the University of Jordan, Amman, Jordan). GCMS analysis: Thermo Scientific Focus gas chromatography coupled to a flame ionization […] was used to analyze the samples. A total of 1.0 µL sample was injected into the Thermo Scientific Focus GC-FID equipped with a split/spitless injector (split ratio, 2.5). The column was HP-5 (DP-5) capillary column stationary phase. Helium was the carrier gas at a flow rate of 1.0 mL/min. Linear temperature program was applied from 100 to 250 °C at 5 °C/min. The specific run time of analysis for each sample was […]. The temperatures of the injector base and the detector were maintained at 250 °C, 250 °C respectively. Lipase from porcine pancreas, Type II, 100–650 units/mg protein (product# L3126) was purchased from Sigma Aldrich (Amman, Jordan).
All tested compounds were dissolved in DMSO to prepare a stock solution (of each compound) having a known concentration. A proper aliquot of each tasted compound was obtained by further dilution of the stock. Samples were prepared and analyzed for their phenyl acetate content by adopting an internal standard procedure. the sample analysis performed using GC-FID. For each sample, 50 µL of 2 mg/mL pancreatic lipase, phenyl acetate (1 mM), and 50 µL of each candidate inhibitor. […] Subsequently, the samples were left for overall time of 20 min vortex and centrifuged for approximately 3 min. For extraction of the phenyl acetate remain in the aqueous layer the nonpolar solvent chloroform containing the internal standard added, then vortex and centrifuged and the chloroform removed to another tube for the GC-FID analysis.
The linearity, RSD, LOD, and LOQ were evaluated for the method of analysis. […] The LOD and LOQ both was measured using the signal-to-noise method. The ratio of the analyte signal to the peak-to-peak noise signal around it was measured of (3:1) which is generally accepted signal-to-noise ratio (S/N) for the LOD estimation.

[2] = system: CCD-1064Sk fibroblast cell line; assay: Cytotoxicity, MTT assay, fibroblasts; format: cell-based; conditions: Homo sapiens, 72 h exposure
Procedure: as §1

dietary fat absorption = conditions: therapeutic dose; cited from earlier work

In the case of CCCCCCCCCCCC(=O)N[C@@H](Cc1ccc(F)cc1F)C(=O)[C@@]1(C)CO1 [Analogue 3, N-((S)-3-(2,4-difluorophenyl)-1-((R)-2-methyloxiran-2-yl)-1-oxopropan-2-yl)dodecanamide], the IC50 (HepG2 hepatoma cell line) is reported as 2600 nM, the IC50 [1] is reported as 29.3 ± 2.4 nM and the IC50 [2] is reported as over 15000 nM.
Compound CCCCCCCCCCCC(=O)N[C@@H](CCCC)C(=O)N[C@@H](Cc1ccc(F)cc1F)C(=O)[C@@]1(C)CO1 [Analogue 4, N-((S)-1-(((S)-3-(2,4-difluorophenyl)-1-((R)-2-methyloxiran-2-yl)-1-oxopropan-2-yl)amino)-1-oxohexan-2-yl)dodecanamide] has an IC50 (HepG2 hepatoma cell line) of 2320 nM, an IC50 [1] of 9.3 ± 2.5 nM and an IC50 [2] of over 15000 nM.
For CC(C)(C)OC(=O)N[C@@H](Cc1ccc(F)cc1F)C(=O)[C@@]1(C)CO1 [Analogue 5, tert-butyl ((S)-3-(2,4-difluorophenyl)-1-((R)-2-methyloxiran-2-yl)-1-oxopropan-2-yl)carbamate], the IC50 (HepG2 hepatoma cell line) was over 15000 nM, the IC50 [1] was 29.4 ± 4.8 nM and the IC50 [2] was over 15000 nM.
CC(C)(C)OC(=O)N[C@@H](Cc1ccc(F)cc1)C(=O)[C@@]1(C)CO1 [Analogue 6, tert-butyl ((S)-3-(4-fluorophenyl)-1-((R)-2-methyloxiran-2-yl)-1-oxopropan-2-yl)carbamate] showed an IC50 (HepG2 hepatoma cell line) of over 15000 nM, an IC50 [1] of 46.4 ± 3.7 nM and an IC50 [2] of over 15000 nM.
Work on CC(C)(C)OC(=O)N[C@@H](Cc1ccccc1)C(=O)[C@@]1(C)CO1 [Analogue 7, tert-butyl ((S)-1-((R)-2-methyloxiran-2-yl)-1-oxo-3-phenylpropan-2-yl)carbamate] yielded an IC50 (HepG2 hepatoma cell line) of over 15000 nM, an IC50 [1] of 49.1 ± 11.4 nM and an IC50 [2] of over 15000 nM.
Compound CC(C)C[C@H](NC(=O)OC(C)(C)C)C(=O)[C@@]1(C)CO1 [Analogue 8, tert-butyl ((S)-4-methyl-1-((R)-2-methyloxiran-2-yl)-1-oxopentan-2-yl)carbamate] has an IC50 (HepG2 hepatoma cell line) of over 15000 nM, an IC50 [1] of 120 ± 15.2 nM and an IC50 [2] of over 15000 nM.
Work on C[C@]1(C(=O)[C@@H](N)Cc2ccc(F)cc2F)CO1 [Analogue 9, (S)-2-amino-3-(2,4-difluorophenyl)-1-((R)-2-methyloxiran-2-yl)propan-1-one] yielded an IC50 (HepG2 hepatoma cell line) of over 15000 nM, an IC50 [1] of 41.5 ± 7.1 nM and an IC50 [2] of over 15000 nM.
Compound C[C@]1(C(=O)[C@@H](N)Cc2ccccc2)CO1 [Analogue 10] has an IC50 (HepG2 hepatoma cell line) of over 15000 nM, an IC50 [1] of 73.1 ± 9.8 nM and an IC50 [2] of over 15000 nM.
With CC(C)(C)OC(=O)N[C@@H](Cc1ccc(F)cc1F)C(=O)[C@]1(C)CO1 [Analogue 11, tert-butyl ((S)-3-(2,4-difluorophenyl)-1-((S)-2-methyloxiran-2-yl)-1-oxopropan-2-yl)carbamate] the IC50 (HepG2 hepatoma cell line) was over 15000 nM, the IC50 [1] was 29 ± 4.2 nM and the IC50 [2] was over 15000 nM.
In the case of C=C(C)C(=O)[C@H](Cc1ccc(F)cc1F)NC(=O)OC(C)(C)C [Analogue 13, tert-butyl (S)-(1-(2,4-difluorophenyl)-4-methyl-3-oxopent-4-en-2-yl)carbamate], the IC50 (HepG2 hepatoma cell line) is reported as over 15000 nM, the “inhibition of PL at the highest concentration tested” value ([1]; 10 µM) is reported as “did not inhibit” and the IC50 [1] is reported as over 10000 nM. For the same compound, the IC50 [2] was over 15000 nM.
Compound CCCCCC(=O)N[C@H](C(=O)N[C@@H](CCS(C)(=O)=O)C(=O)N[C@@H](CC(C)C)C(=O)[C@@]1(C)CO1)C(C)C [carmaphycin B (2), carmaphycin B, reference compound] has an IC50 [1] of 25 ± 1.1 nM.
For CCCCCCCCCCC[C@@H](C[C@@H]1OC(=O)[C@H]1CCCCCC)OC(=O)[C@H](CC(C)C)NC=O [orlistat (1), orlistat], the “inhibition of dietary fat absorption” value (dietary fat absorption) is given as “approximately 30%”.
